For assay [1], the target named is PIM1 transgenic cells (Ba/F3) (Homo sapiens, UniProt P11309). The assay is described as follows: Proliferation inhibitory effect on PIM1 transgenic cells. Format: cell-based, mouse. The settings on record: proliferation inhibition, 72 hours, Cell Counting Kit-8, read-out: PIM1 IC50. The method in brief: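 Mouse Ba/F3 pro-B cells were retrovirally transduced with human PIM1 so that their proliferation depends on PIM1. Cells were treated with compound at 1–10000 nM final for 72 h, then read by CCK-8 (OD450−OD650). Inhibition was set against DMSO (0%) and no-cell blank (100%), and IC50 was obtained by two-parameter logistic regression.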
On the technique in general: Tetrazolium dyes change colour on reduction, which living cells bring about.

For assay [2], the target named is PIM2 transgenic cells (Ba/F3) (Homo sapiens, UniProt Q9P1W9). As to the kind of experiment: Proliferation inhibitory effect on PIM2 transgenic cells. Format: cell-based, mouse. The conditions noted are these: proliferation inhibition, 72 hours, Cell Counting Kit-8, read-out: PIM2 IC50. From the text: Human PIM1, 2, and 3 genes were inserted into the multi-cloning sites of retrovirus expression vectors pMYs-IRES-GFP, respectively, to prepare gene transfer vectors. Then, each gene transfer vector was introduced into packaging cells PLAT-E derived from a human fetal kidney cell line in the logarithmic growth phase, using a transfection reagent (FuGENE6, Promega Corporation). Since the culture supernatant of PLAT-E after gene transfer contained virus particles for gene transfer, the culture supernatant was collected and used as a medium for gene transfer. The medium for gene transfer was added to a plate coated with RetroNectin, and the plate was incubated to attach the virus particles to the plate. Then, a mouse pro-B cell line Ba/F3 in the logarithmic growth phase was seeded on the plate and infected with the virus to prepare PIM1, 2, or 3 transgenic cells that proliferate in a PIM 1, 2, or 3-dependent manner. The expression of PIM1, 2, or 3 protein in each cell was confirmed by Western blotting.
Each test substance was prepared to 10 mM with dimethylsulfoxide (DMSO), and diluted with DMSO so as to have concentrations of 3000, 1000, 300, 100, 30, 10, 3, and 1 μM. Moreover, each dilution was further diluted 10-fold with distilled water to prepare a test substance solution.
PIM1, 2, 3-expressing cells were seeded on a 96-well plate, and each test substance solution prepared the next day was added such that final concentrations were 10000, 3000, 1000, 300, 100, 30, 10, 3, and 1 nM. 72 hours after the addition, 10 μL of Cell Counting Kit-8 (DOJINDO LABORATORIES) was added to each well. After incubation for 1 to 4 hours, absorbance OD450 at 450 nm was measured. In addition, absorption OD650 at 650 nm as a reference wavelength was measured.
OD450-OD650 for each condition was calculated, and then the inhibition rates when OD450-OD650 of negative control (DMSO only) and OD450-OD650 of Blank (without cells) were set to 0% and 100%, respectively, were calculated. Then, non-linear regression analysis was performed for logarithmic dose and inhibition rate using a two-parameter logistic model to estimate IC50 values.
For the compounds with the following Example numbers, in addition to the above proliferation inhibitory effect on PIM1 transgenic cells, the proliferation inhibitory effect on PIM2 transgenic cells and the proliferation inhibitory effect on PIM3 transgenic cells were calculated as IC50.

Assay [3] deals with T1, PIM1 serine/threonine kinase (Homo sapiens, UniProt P11309).
T1 construct: purchased Carna Bioscience, Inc
As to the kind of experiment: PIM1 serine/threonine kinase inhibitory effect. Format: biochemical. The conditions noted are these: PIM1 serine/threonine kinase activity; ATP 40 μM; 30° C., 30 minutes. The method in brief: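 Compounds were tested in duplicate from 0.01 to 10000 nM final against PIM1 kinase (0.15 μg/ml). The reaction ran for 30 minutes at 30° C with 40 μM ATP and 0.5 μM biotin-tagged substrate at pH 7.0. Phosphorylation was read by time-resolved FRET (OD665/OD620) after 1 h; IC50 by non-linear fit.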

The target of assay [4] is T2, PIM2 serine/threonine kinase (Homo sapiens, UniProt Q9P1W9).
T2 construct: purchased Carna Bioscience, Inc
As to the kind of experiment: PIM2 serine/threonine kinase inhibitory effect. Format: biochemical. The settings on record: PIM2 serine/threonine kinase activity; ATP 2 μM; 30° C., 30 minutes. The procedure:
(§1) Each test substance was prepared to 10 mM with dimethylsulfoxide (DMSO), and further diluted with DMSO so as to have concentrations of 1000, 300, 100, 30, 10, 3, 1, 0.3, 0.1, 0.03, 0.01, and 0.001 μM. Moreover, each dilution was further diluted 33.3-fold with an assay buffer to prepare a test substance solution. The composition of the assay buffer was 50 mM HEPES (pH 7.0), 0.02% NaN3, 0.01% Bovine Serum Albumin, 0.1 mM Orthovanadate, 1 mM Dithiothreitol, and 5 mM MgCl2.
(§2) 5 μL of each test substance solution was added to 384-well plates (n=2), and then 2.5 μL of a substrate solution (substrate 3-biotin (Cisbio Bioassays SAS), final concentration in the reaction solution: 0.5 μM) and 2.5 μL of an ATP solution (in the cases of PIM1, 2, 3, the final concentrations in the reaction solutions were 40, 2, and 10 μM, respectively) were added, 5 μL of each of PIM1, 2, 3 serine/threonine kinase solutions (Carna Bioscience, Inc., the final concentrations in the reaction solutions were 0.15, 1.6, and 0.25 μg/ml, respectively) was finally added, and the mixture was reacted at 30° C. for 30 minutes. The test substance concentrations in the reaction solutions are 10000, 3000, 1000, 300, 100, 30, 10, 3, 1, 0.3, 0.1, and 0.01 nM.
(§3) Thereafter, 15 μL of each detection solution (62.5 nM Streptavidin-XL665 (Cisbio Bioassays SAS), […] STK antibody-Cryptate (Cisbio Bioassays SAS), 50 mM HEPES (pH 7.0), 0.8 M KF, 0.1% Bovine Serum Albumin, 20 mM ethylenediaminetetraacetic acid) was added to each well. After stirring, the mixture was reacted at 30° C. for 1 hour. Absorbance (OD620, OD665) at 620 and 665 nm was measured with a microplate reader (SpectraMax M5e, Molecular Devices, LLC).
(§4) Non-linear regression analysis was performed by an SAS system (SAS Institute Inc.) using the ratio (OD665/OD620) of the measured absorbance to calculate a test substance concentration (IC50) that inhibits PIM1 serine/threonine kinase activity by 50%.
(§5) For the compounds with the following Example numbers, in addition to the above PIM1 serine/threonine kinase activity (IC50), test substance concentrations (IC50) that inhibit PIM2 serine/threonine kinase activity and PIM3 serine/threonine kinase activity by 50% were calculated.

In assay [5] the target is T3, PIM3 serine/threonine kinase (Homo sapiens, UniProt Q86V86).
T3 construct: purchased Carna Bioscience, Inc
The assay is described as follows: PIM3 serine/threonine kinase inhibitory effect. The conditions noted are these: PIM3 serine/threonine kinase activity; ATP 10 μM; 30° C., 30 minutes. Format: biochemical. The method, then: as §1, §2, §3, §4, §5

This passage reports GI50 and IC50 results from patent publication US20220024921A1, “1,3,4-OXADIAZOLONE COMPOUND AND PHARMACEUTICAL” (NIPPON SHINYAKU CO., LTD., priority 2018, published 2022).

PIM2 transgenic cells (Ba/F3), sequence (Q9P1W9 whole entry, stated change not applied): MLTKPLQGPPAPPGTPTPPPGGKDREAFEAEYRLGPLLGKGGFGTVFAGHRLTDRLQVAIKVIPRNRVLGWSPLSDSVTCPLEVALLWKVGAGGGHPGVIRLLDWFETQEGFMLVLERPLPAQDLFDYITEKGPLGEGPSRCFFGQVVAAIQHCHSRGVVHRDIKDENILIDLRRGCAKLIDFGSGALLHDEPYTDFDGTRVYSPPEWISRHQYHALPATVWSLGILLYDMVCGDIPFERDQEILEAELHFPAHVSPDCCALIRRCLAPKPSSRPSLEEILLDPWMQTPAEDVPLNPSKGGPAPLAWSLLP
T1 sequence (P11309 whole entry): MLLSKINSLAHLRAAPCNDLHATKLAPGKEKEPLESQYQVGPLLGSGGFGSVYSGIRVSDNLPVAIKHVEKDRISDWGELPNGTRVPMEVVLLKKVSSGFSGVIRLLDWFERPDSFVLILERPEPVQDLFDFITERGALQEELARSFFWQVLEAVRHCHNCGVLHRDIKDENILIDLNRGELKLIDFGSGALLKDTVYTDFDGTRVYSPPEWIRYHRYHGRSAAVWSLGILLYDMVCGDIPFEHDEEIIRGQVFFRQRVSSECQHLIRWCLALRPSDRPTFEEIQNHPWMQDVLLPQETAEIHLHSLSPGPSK
PIM1 transgenic cells (Ba/F3), sequence (P11309 whole entry, stated change not applied): as the sequence (P11309 whole entry) above
T2 sequence (Q9P1W9 whole entry): as the sequence (Q9P1W9 whole entry, stated change not applied) above

A word on the IC50: it is the concentration needed to halve the response being measured. Low values mean inhibition by little substance, high ones a need for much substance. Take `C[C@H](Nc1cc(-c2n[nH]c(=O)o2)cc(F)c1OC(F)(F)F)C1CCNCC1.Cl` [Example 202, 5-[3-fluoro-5-{[(1S)-1-(piperidin-4-yl)ethyl]amino}-4-(trifluoromethoxy)phenyl]-1,3,4-oxadiazol-2(3H)-one hydrochloride]: the GI50 was found to be 26 nM in assay [1] and 790 nM in assay [2]. In addition, in assay [3], the IC50 was 1.5 nM.
Take `C[C@H](Nc1cc(-c2n[nH]c(=O)o2)cc(F)c1C(F)(F)F)C1CCNCC1.Cl` [Example 75, 5-[3-fluoro-5-{[(1S)-1-(piperidin-4-yl)ethyl]amino}-4-(trifluoromethyl)phenyl]-1,3,4-oxadiazol-2(3H)-one hydrochloride]: the GI50 in assay [1] was 24 nM; in assay [2] it was 620 nM. The IC50 was 1.4 nM in assay [3], 2.3 nM in assay [4] and 10 nM in assay [5].
